The values that follow come from paper PMC5642509, “A small-molecule inhibitor targeting the AURKC–IκBα interaction decreases transformed growth of MDA-MB-231 breast cancer cells” (Oncotarget, 2017).

The target in one experiment is T1, Aurora C (AURKC) (Homo sapiens, UniProt Q9UQB9).
T1 construct: recombinant active AURKC
T1 sequence (Q9UQB9 1-309): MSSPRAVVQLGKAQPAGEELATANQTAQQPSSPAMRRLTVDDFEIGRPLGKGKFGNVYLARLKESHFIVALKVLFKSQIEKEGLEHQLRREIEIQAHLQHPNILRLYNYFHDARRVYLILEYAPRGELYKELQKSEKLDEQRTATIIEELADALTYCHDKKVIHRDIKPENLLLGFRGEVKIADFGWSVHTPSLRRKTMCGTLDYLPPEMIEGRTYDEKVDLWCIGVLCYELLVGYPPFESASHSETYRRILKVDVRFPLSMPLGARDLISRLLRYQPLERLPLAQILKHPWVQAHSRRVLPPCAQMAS
The experiment is described as follows: ATP-competition kinase assay, active AURKC and purified IκBα, pS32 immunoblot (GSK1070916 […], various ATP). The class given is biochemical.

The next experiment concerns the target T2, pBIND-AURKC (human, UniProt Q9UQB9 1-309).
T2 construct: Aurora C kinase (AURKC); also called pM-BD-pAURKC; source: mammalian two-hybrid fusion, transfected cells
T2 sequence (looked up): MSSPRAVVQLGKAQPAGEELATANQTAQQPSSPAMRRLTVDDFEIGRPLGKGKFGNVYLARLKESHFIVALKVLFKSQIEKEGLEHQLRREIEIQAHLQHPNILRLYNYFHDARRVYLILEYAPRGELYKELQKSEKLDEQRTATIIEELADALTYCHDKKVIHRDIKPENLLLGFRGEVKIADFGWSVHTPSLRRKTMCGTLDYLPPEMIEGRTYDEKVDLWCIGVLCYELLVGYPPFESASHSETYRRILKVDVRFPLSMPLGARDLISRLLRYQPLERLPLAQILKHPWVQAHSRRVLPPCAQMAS
The experiment is described as follows: two-hybrid; mammalian two-hybrid: pBIND-AURKC, pACT-IκBα and pG5-luciferase transfected in equal amounts; luciferase read-out normalised against the control. The settings on record: partners not purified.

Take `CCn1cc(-c2ccnc3[nH]c(-c4cccc(CN(C)C)c4)cc23)c(-c2ccc(NC(=O)N(C)C)cc2)n1` [GSK1070916]: the “ATP-competition kinase assay, active AURKC and purified IκBα, pS32 immunoblot (G)” value on Aurora C (AURKC) was “the inhibitory activity of GSK1070916 was inversely proportional to the concentration of ATP (Figure 6E and 6F)”.

B1: pACT-IκBα (natural protein, human, UniProt P25963 1-317, looked up)
chain: MFQAAERPQEWAMEGPRDGLKKERLLDDRHDSGLDSMKDEEYEQMVKELQEIRLEPQEVPRGSEPWKQQLTEDGDSFLHLAIIHEEKALTMEVIRQVKGDLAFLNFQNNLQQTPLHLAVITNQPEIAEALLGAGCDPELRDFRGNTPLHLACEQGCLASVGVLTQSCTTPHLHSILKATNYNGHTCLHLASIHGYLGIVELLVSLGADVNAQEPCNGRTALHLAVDLQNPDLVSLLLKCGADVNRVTYQGYSPYQLTWGRPSTRIQQQLGQLTLENLQMLPESEDEESYDTESEFTEFTEDELPYDDCVFGGQRLTL
notes: IκBα; also called pVP-IκBα; source: mammalian two-hybrid fusion, transfected cells
As for B1, the “fold luciferase activity over the Bind-AURKC vector” value with pBIND-AURKC is around 2.7 fold.
